Consider twelve compounds from patent publication US7737123B2, “Multidrug resistant anticancer anthracyclines” (The Ohio State University Research Foundation, priority 2005, dated 2010).

In series [1] the test system is colon cancer cell line SW620 cells. Description: Cytotoxicity in colon cancer cell line SW620 with MTS assay. The class given is cell-based. To be noted: for IC50: read-out: IC50 in SW620. Here is the method:
The cytotoxicity of compounds DNR-1-DNR-6 prepared in this manner was examined in colon cancer cell line SW620 cells with MTS assay. […] Then 20 μL MTS/PMS assay solution was added to each well and the absorbance was recorded. The cell survival was calculated as percentage of cell control group without treatment. The IC50 of all these compounds against colon cancer cell line SW620 are summarized in Table 1 and graphically illustrated in FIGS. 1A and 1B. These IC50 values were calculated by WinNonlin 4.1 (Pharsight) from the dose-response curves of percentage of cell growth with the model: E=Emax−(Emax−E0)×[C/(C+EC50)].

A further series relates to K562/Dox. It counts as cell-based.
In a further series the test system is leukemia cells K562. Description: Cytotoxicity in drug-sensitive leukemia K562 cells by MTS assay. The class given is cell-based. To be noted: Homo sapiens. Here is the method:
The drug resistance index (DRI, ratio of IC50 in drug-resistant cells over IC50 in drug-sensitive cells) is a good indicator of drug's ability to overcome resistance.
The anticancer activities of Compounds 1-6 were examined in leukemia cells K562 and doxorubicin-resistant K562/Dox cells by MTS assay. The drug-resistant K562/Dox cell line was induced by doxorubicin treatment. The cell line was cultured in 0.1 μM doxorubicin one week/per month, followed by 10 days culture without doxrubicin before experiment. This is to maintain similar high levels of P-gp expression in each experiment. In drug-resistant K562 cells, MDR1 mRNA was induced by 600-fold higher than drug-sensitive K562 cells as measured by real-time PCR (data not shown). […] Then 20 μL MTS/PMS assay solution was added to each well and the absorbance was recorded. The cell survival was calculated as percentage of cell control group without treatment. The anticancer activities are summarized in Table 2 and graphically illustrated in FIG. 5. The IC50 values were calculated by WinNonlin 4.1 (Pharsight) from the dose-response curves of percentage of cell growth with the model: E=Emax−(Emax−E0)×[C/(C+EC50)]

A further series has as its target T1, P-gp (Homo sapiens, UniProt P08183).
T1 construct: endogenous in cells; host or cells: K562/Dox (doxorubicin-induced drug-resistant K562 leukemia cells)
Description: P-gp export (uptake and efflux by FACS) in K562/Dox cells with or without CsA. The class given is cell-based. To be noted: CsA 5 μM, 30 min incubation.

Series [2] has as its system drug-resistant leukemia K562/Dox xenograft. Description: K562/Dox leukemia xenograft mouse model. To be noted: for tumor growth inhibition (in words): 5 or 10 mg/kg intraperitoneally twice per week for three weeks, one week after dose. Here is the method: In this animal model, 10^7 drug-resistant leukemia K562/Dox was injected subcutaneously into nude mice. […] The tumor volume was measured every three days.

The subject of series [3] is doxorubicin-resistant K562/Dox cells. Description: Cytotoxicity in doxorubicin-resistant K562/Dox cells by MTS assay. The class given is cell-based. As to conditions: for IC50: Homo sapiens, drug-resistant K562/Dox, MTS assay, 72 hours; for DRI (drug resistance index): ratio of IC50 in drug-resistant cells over IC50 in drug-sensitive cells. How it is done:
The drug-resistant K562/Dox cell line was induced by doxorubicin treatment. The cell line was cultured in 0.1 μM doxorubicin one week/per month, followed by 10 days culture without doxrubicin before experiment. This is to maintain similar high levels of P-gp expression in each experiment. […] Then 20 μL MTS/PMS assay solution was added to each well and the absorbance was recorded. The cell survival was calculated as percentage of cell control group without treatment. […] The IC50 values were calculated by WinNonlin 4.1 (Pharsight) from the dose-response curves of percentage of cell growth with the model: E=Emax−(Emax−E0)×[C/(C+EC50)]

The mark [4] stands for this setting: drug-sensitive K562, MTS assay, 72 hours, read-out: IC50 in K562.
Where [5] appears, read: drug-sensitive K562, values given in text in nM, read-out: IC50 against K562.
[6] abbreviates: 10 mg/kg twice per week for three weeks.

Where two headings read alike, the source gives them in different places.

T1 sequence (P08183 whole entry): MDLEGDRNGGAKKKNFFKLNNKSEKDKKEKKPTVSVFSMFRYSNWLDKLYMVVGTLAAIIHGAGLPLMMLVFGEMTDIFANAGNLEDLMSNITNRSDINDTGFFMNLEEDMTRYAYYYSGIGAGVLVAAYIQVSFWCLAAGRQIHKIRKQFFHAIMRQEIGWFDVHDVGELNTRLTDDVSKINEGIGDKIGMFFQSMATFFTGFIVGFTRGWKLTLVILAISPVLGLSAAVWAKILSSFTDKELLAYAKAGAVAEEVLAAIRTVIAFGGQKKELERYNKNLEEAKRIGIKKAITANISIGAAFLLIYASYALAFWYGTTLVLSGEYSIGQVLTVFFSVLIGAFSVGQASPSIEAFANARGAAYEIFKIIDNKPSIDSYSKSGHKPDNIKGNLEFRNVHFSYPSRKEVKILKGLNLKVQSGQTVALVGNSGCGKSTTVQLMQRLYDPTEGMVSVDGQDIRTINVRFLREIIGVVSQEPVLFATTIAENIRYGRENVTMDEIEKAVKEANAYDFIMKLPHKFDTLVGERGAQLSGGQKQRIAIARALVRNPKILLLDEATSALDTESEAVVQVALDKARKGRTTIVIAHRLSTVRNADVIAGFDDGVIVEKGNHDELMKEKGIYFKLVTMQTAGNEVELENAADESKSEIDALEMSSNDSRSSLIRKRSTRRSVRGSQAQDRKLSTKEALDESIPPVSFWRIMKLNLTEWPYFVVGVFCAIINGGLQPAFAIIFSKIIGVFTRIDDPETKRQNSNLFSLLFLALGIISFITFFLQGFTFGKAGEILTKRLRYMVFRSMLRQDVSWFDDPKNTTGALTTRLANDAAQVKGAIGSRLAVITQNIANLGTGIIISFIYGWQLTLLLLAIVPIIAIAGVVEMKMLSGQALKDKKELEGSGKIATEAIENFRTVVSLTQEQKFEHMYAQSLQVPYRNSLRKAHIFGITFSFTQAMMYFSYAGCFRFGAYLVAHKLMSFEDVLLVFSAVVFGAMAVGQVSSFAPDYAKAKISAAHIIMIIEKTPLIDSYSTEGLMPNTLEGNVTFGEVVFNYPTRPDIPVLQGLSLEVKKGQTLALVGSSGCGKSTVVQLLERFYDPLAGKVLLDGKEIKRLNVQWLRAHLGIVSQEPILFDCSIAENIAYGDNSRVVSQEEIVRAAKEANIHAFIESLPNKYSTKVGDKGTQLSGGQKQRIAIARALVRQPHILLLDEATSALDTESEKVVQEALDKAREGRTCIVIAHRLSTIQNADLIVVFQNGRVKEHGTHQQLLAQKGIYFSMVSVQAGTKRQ

On to `COc1cccc2c1C(=O)c1c(O)c3c(c(O)c1C2=O)C[C@@](O)(C(C)=O)C[C@@H]3OC1CCC(O)C(C)O1` (stereo partly drawn) [DNR-5], for which, in series [1] (Homo sapiens, SW-620, 72 h), the IC50 worked out at 350 nM.
As for `COc1cccc2c1C(=O)c1c(O)c3c(c(O)c1C2=O)C[C@@](O)(C(C)=O)C[C@@H]3OC1CC(OC)C(O)C(C)O1` (stereo partly drawn) [DNR-4], in series [1] (Homo sapiens, SW-620, 72 h), the IC50 amounted to 104 nM.
For `COc1cccc2c1C(=O)c1c(O)c3c(c(O)c1C2=O)C[C@@](O)(C(C)=O)C[C@@H]3O[C@H]1C[C@H](N)[C@H](O)[C@H](C)O1` [DNR, daunorubicin, reference compound], the “cell killing effect in combination with CsA” value in the series with K562/Dox is “more than 70%”. In the series with K562/Dox, the “cell killing effect, drug alone” value was 30%. Moreover, the IC50 was 15 nM in the series with leukemia cells K562 (setting [4]); 15 nM in the series with leukemia cells K562 (setting [5]); 33.4 nM in series [1] (Homo sapiens, SW-620, 72 h); more than 5 µM in series [3] (K562, 72 h). The “effect of P-gp inhibitor (CsA) on retention of drug in K562/Dox cells, uptake and efflux phases” value on P-gp is “significantly inhibited the drug efflux and increased drug accumulation”. In addition, in series [2] (10 mg/kg), the “time by which 50% mice died” value is reported as less than 20 days. In series [2] (setting [6]), the body weight decrease entry is given as “more than 70%”. For the same compound, the “time by which all mice died” value in series [2] (10 mg/kg, due to both tumor growth and drug toxicity) is given as less than 30 days. Moreover, in series [2], the “tumor growth inhibition (in words)” value is on record as “significantly inhibited tumor growth”.
Regarding `COc1cccc2c1C(=O)c1c(O)c3c(c(O)c1C2=O)C[C@@](O)(C(C)=O)C[C@@H]3OC1CC(N=[N+]=[N-])C(O)C(C)O1` (stereo partly drawn) [ADNR, 3′-azido-deamino-daunorubicin], the “cell killing effect, drug alone” value in the series with K562/Dox (1 μM, K562/Dox, without CsA) is listed as “more than 50%”. Further, in the series on K562/Dox (drug 1 μM plus CsA 5 μM, K562/Dox), the “cell killing effect in combination with CsA” value was “did not change the cell killing effects”. In addition, the IC50 with leukemia cells K562 (setting [4]) was 75 nM. The “fold higher maximum growth inhibition rate than DNR” value in series [2] (5 mg/kg) was 2.5 fold. In series [2] (setting [6]), the body weight decrease entry is “did not show any significant body weight change” and the “survival after 50 days” value is on record as 100%. Also, the “tumor growth inhibition (in words)” value in series [2] was “significantly inhibited tumor growth”. Also, in series [3], the “fold more active than DNR against drug-resistant K562 cells” value is “at least 5 fold”, the IC50 stood at 1 µM and the “DRI (drug resistance index)” value is 13. In series [3] (listed as 8), the “DRI (drug resistance index)” value is reported as 13.3. In addition, the “fold lower DRI than that of DNR” value in series [3] (versus DNR) is listed as 25 fold.
Consider `COc1cccc2c1C(=O)c1c(O)c3c(c(O)c1C2=O)C[C@@](O)(C(C)=O)C[C@@H]3OC1CC(N=[N+]=[N-])C(OC2CC(O)C(O)C(C)O2)C(C)O1` (stereo partly drawn) [Compound 2], for which the IC50 in the series on leukemia cells K562 (setting [4]) is 287 nM; in the series on leukemia cells K562 (setting [5]), 200 to 1100 nM; in series [3] (K562, 72 h), 5.44 µM. Moreover, in series [3], the “DRI (drug resistance index)” value amounted to 18.94.
Consider `COc1cccc2c1C(=O)c1c(O)c3c(c(O)c1C2=O)C[C@@](O)(C(C)=O)C[C@@H]3OC1CC(N=[N+]=[N-])C(OC2CC(C)(OC)C(O)C(C)O2)C(C)O1` (stereo partly drawn) [Compound 4], for which the IC50 is 225 nM in the series on leukemia cells K562 (setting [4]); 200 to 1100 nM with leukemia cells K562 (setting [5]); 12.1 µM in series [3] (K562, 72 h). In addition, in series [3], the “DRI (drug resistance index)” value is on record as 53.64.
For the compound `COc1cccc2c1C(=O)c1c(O)c3c(c(O)c1C2=O)C[C@@](O)(C(C)=O)C[C@@H]3OC1CCC(N=[N+]=[N-])C(C)O1` (stereo partly drawn) [DNR-6], in series [1] (FIG. 1B), the “cytotoxicity in SW620 (in words)” value is on record as “lost its cytotoxicity”. In addition, the IC50 in series [1] (Homo sapiens, SW-620, 72 h) is more than 1000 nM.
For `COc1cccc2c1C(=O)c1c(O)c3c(c(O)c1C2=O)C[C@@](O)(C(C)=O)C[C@@H]3OC1CC(N=[N+]=[N-])C(OC2CC(N=[N+]=[N-])C(O)C(C)O2)C(C)O1` (stereo partly drawn) [Compound 6], the IC50 stood at 1130 nM in the series with leukemia cells K562 (setting [4]) and 6.39 µM in series [3] (K562, 72 h). The “DRI (drug resistance index)” value in series [3] was 5.64.
Regarding `COc1cccc2c1C(=O)c1c(O)c3c(c(O)c1C2=O)C[C@@](O)(C(C)=O)C[C@@H]3O` [DNR-A, reference compound], the “fold lower cytotoxicity than compounds DNR-1-DNR-6” value in series [1] is 70-100 fold. In addition, the IC50 in series [1] (MTS assay, 72 hours) is more than 2000 nM.
Take `COc1cccc2c1C(=O)c1c(O)c3c(c(O)c1C2=O)C[C@@](O)(C(C)=O)C[C@@H]3OC1CC(N=[N+]=[N-])C(OC2CCC(O)C(C)O2)C(C)O1` (stereo partly drawn) [Compound 1]: the IC50 with leukemia cells K562 (setting [4]) was 787 nM; with leukemia cells K562 (setting [5]), 200 to 1100 nM. For the same compound, the “DRI (drug resistance index)” value in series [3] was determined as 2.45.
For `COc1cccc2c1C(=O)c1c(O)c3c(c(O)c1C2=O)C[C@@](O)(C(C)=O)C[C@@H]3OC1OC(C)C(O)C(O)C1O` (stereo partly drawn) [DNR-1], in series [1] (Homo sapiens, SW-620, 72 h), the IC50 was determined as 265 nM.
Consider `COc1cccc2c1C(=O)c1c(O)c3c(c(O)c1C2=O)C[C@@](O)(C(C)=O)C[C@@H]3OC1CC(C)(OC)C(O)C(C)O1` (stereo partly drawn) [DNR-3], for which the IC50 in series [1] (Homo sapiens, SW-620, 72 h) was more than 1000 nM.
